Experiment in all cases: Minimum inhibitory concentration (MIC) in vitro, β-lactamase inhibitory activity demonstration
Holding throughout (format): cell-based

For one assay, the system named is E. coli JT39. The conditions noted are these: Escherichia coli, compound alone, no ampicillin, read-out: MIC EC, Compound alone. As to the method: (§1) The minimum inhibitory concentrations (MIC) of certain compounds of this invention and of ampicillin, alone or in the presence of compounds of the invention, were determined in vitro for a range of micro-organisms.

For another assay, the system named is Klebsiella aerogenes E70. To be noted: compound alone, no ampicillin, read-out: MIC KA, Compound alone. As to the method: as §1
The next assay relates to Proteus mirabilis C889. To be noted: compound alone, no ampicillin. As to the method:
as §1

Assay [1] concerns Staphylococcus aureus Russell. The conditions noted are these: compound alone, no ampicillin, read-out: MIC SAR, Compound alone. As to the method:
as §1

≈ marks a conversion by molar mass, not a printed value.

By MIC is commonly meant the smallest concentration in the dilution series that meets the test's criterion for growth inhibition. For `C=COC/C=C1\O[C@@H]2CC(=O)N2[C@H]1C(=O)OC` [Example 8, Methyl 9-0-vinylclavulanate], the MIC with E. coli JT39 was determined as 500 µg/mL (≈ 2090 µM); in the assay on Klebsiella aerogenes E70, 500 µg/mL (≈ 2090 µM); in the assay with Proteus mirabilis C889, 250 µg/mL (≈ 1050 µM); in assay [1], 125 µg/mL (≈ 523 µM).
Turning to `C=COC/C=C1\O[C@@H]2CC(=O)N2[C@H]1C(=O)O` [Example 10, Lithium 9-0-vinyl-clavulanate], the minimal inhibitory concentration (MIC) in the assay on E. coli JT39 is 31.2 µg/mL (≈ 139 µM); in the assay on Klebsiella aerogenes E70, 31.2 µg/mL (≈ 139 µM); with Proteus mirabilis C889 it was 62.5 µg/mL (≈ 278 µM); in assay [1], 15.6 µg/mL (≈ 69.3 µM).

The values are drawn from patent publication EP0000804A1, “Process for the preparation of ethers of clavulanic acid” (BEECHAM GROUP PLC, priority 1977, dated 1979).
